Results as given in article PMC3419816 (Journal of molecular neuroscience : MN, 2012).
Read-outs that look alike come from different tables or passages of the source. Positions of bridges follow the written chain, without caps; N, C: chain ends. No end group written: not given here.

Columns and labels:
[1] = system: cytosolic Ca^2+ (NCI-H838 cells); test: Cytosolic Ca^2+ in Fura-2 AM loaded NCI-H838 cells; type: cell-based; details: for effect on PACAP-induced increase in cytosolic Ca^2+ (discussion): NCI-H838 cells; for effect on PACAP-27-stimulated fluorescence intensity / effect on basal fluorescence intensity: 50 μM inhibitor; for effect on PACAP-27-stimulated fluorescence intensity: 100 nM PACAP-27, Fig. 1; for effect on basal fluorescence intensity: Fig. 1
[2] = system: epidermal growth factor receptor (EGFR); details: ref Moody et al., 2012, cited from earlier work; for effect on PACAP-induced EGFR tyrosine phosphorylation: NCI-H838
PYK-2 [3] = details: NCI-H69, ref Roelle et al., 2008, cited from earlier work; for PYK-2 tyrosine phosphorylation: 10 μM
FAK [4] = details: pancreatic acini, cited from earlier work
ERK [5] = details: NCI-H838; ref Moody et al., 2002; cited from earlier work
FAK [6] = details: read-out: FAK IC50, cited from earlier work
PYK-2 [7] = details: read-out: PYK-2 IC50, cited from earlier work
[8] = system: prostate, breast, pancreatic and colon tumors; details: nude mice; ref Roberts et al., 2008; cited from earlier work
ERK [9] = details: NCI-H69; ref Roelle et al., 2008; cited from earlier work
ovarian tumor = details: animal models; ref Halder et al., 2007; cited from earlier work
glioma tumor = details: animal models; ref Halder et al., 2007; cited from earlier work
[10] = system: cytosolic Ca^2+ (pancreatic acini); details: ref Pace et al., 2003; cited from earlier work
NCI-H838 cells = details: ref Moody et al., cited from earlier work; for growth of NCI-H838 cells: 2003b
[11] = system: cytosolic Ca^2+ (NCI-H69 cells); details: 10 μM, ref Roelle et al., 2008; cited from earlier work
PYK-2 [12] = details: 10 μM, NCI-H510; ref Roelle et al., 2008; cited from earlier work
[13] = system: cytosolic Ca^2+ (NCI-H510 cells); details: 10 μM, ref Roelle et al., 2008; cited from earlier work
[14] = system: phosphatidylinositol turnover; details: lung cancer cells, cited from earlier work
cAMP = details: lung cancer cells, cited from earlier work
PAC1 = details: cited from earlier work
PYK-2 [15] = test: Total PYK-2 Western blot, NCI-H838 cells; type: cell-based; details: 100 nM, 2 min, Fig. 3A
PYK-2 [16] = details: by an increase in cytoplasmic Ca^2+; ref Lev et al., 1995; cited from earlier work
VPAC2 = details: ref Ishihara et al., 1992; Lutz et al., 1993; cited from earlier work
VPAC1 = details: ref Ishihara et al., 1992; Lutz et al., 1993; cited from earlier work
[17] = ATP binding, ref Roberts et al., 2008
[18] = ATP binding site, ref Liu et al., 2007

For `O=C(O)CN(CC(=O)O)c1ccccc1OCCOc1ccccc1N(CC(=O)O)CC(=O)O` [BAPTA], the “effect on PACAP-induced increase in cytosolic Ca^2+ (discussion)” value [1] is listed as “inhibited”, the “effect on PACAP-induced EGFR tyrosine phosphorylation” value [2] is listed as “not BAPTA inhibited” and the “effect on GAL- or BK-induced PYK-2 phosphorylation” value (PYK-2 [3]) is listed as “blocked”.

In the case of `CN(C)CCCn1cc(C2=C(c3c[nH]c4ccccc34)C(=O)NC2=O)c2ccccc21` [GF109203X], the “effect on CCK-induced FAK tyrosine phosphorylation” value (FAK [4]; ref Tapia et al., 1999) is given as “unaffected”.

In the case of `O=S(=O)(NCCNC/C=C/c1ccc(Br)cc1)c1cccc2cnccc12` [H89], the “effect on PACAP-27-stimulated fluorescence intensity” value [1] is reported as “no effect” and the “effect on basal fluorescence intensity” value [1] is reported as “no effect”.

In the case of `COc1cccc(-c2cc(=O)c3ccccc3o2)c1N` [PD98059], the “effect on PACAP-induced ERK tyrosine phosphorylation” value (ERK [5]) is listed as “inhibited”.

In the case of `CN(c1ncccc1CNc1nc(Nc2ccc3c(c2)CC(=O)N3)ncc1C(F)(F)F)S(C)(=O)=O` [PF-562,271], the IC50 (FAK [6]; [17]) is given as 2 nM, the IC50 (PYK-2 [7]; [17]) is given as 13 nM and the “growth of prostate, breast, pancreatic and colon tumors” value [8] is given as “inhibited”.

In the case of `CC(C)(C)n1nc(-c2ccc(Cl)cc2)c2c(N)ncnc21` [PP2], the “effect on GAL- or BK-induced ERK tyrosine phosphorylation” value (ERK [9]) is listed as “blocked”, the “effect on PACAP-induced EGFR tyrosine phosphorylation” value [2] is listed as “inhibited” and the “effect on GAL- or BK-induced PYK-2 phosphorylation” value (PYK-2 [3]) is listed as “blocked”.

In the case of `CNC(=O)c1ccccc1Nc1nc(Nc2ccc(N3CCOCC3)cc2OC)ncc1Cl` [TAE226], the IC50 (FAK [6]; [18]) is given as 5 nM, the ovarian tumor growth (ovarian tumor) is given as “inhibited” and the IC50 (PYK-2 [7]; [18]) is given as 5 nM. For the same molecule, the glioma tumor growth (glioma tumor) was “inhibited”.

For `COc1ccc2c(c1)CC[C@@H]1[C@@H]2CC[C@]2(C)[C@@H](NCCCCCCN3C(=O)C=CC3=O)CC[C@@H]12` [U73122], the “effect on ionomycin-induced increase in cytosolic Ca^2+” value ([1]; 5 μM ionomycin, data not shown) was “little effect”, the “effect on PACAP-27-stimulated fluorescence intensity” value [1] was “abolished” and the “effect on basal fluorescence intensity” value [1] was “little effect”.

For `C/C=C(/C)C(=O)O[C@H]1C(C)=C2[C@H]([C@@H]1OC(=O)CCCCCCC)[C@@](C)(OC(C)=O)C[C@H](OC(=O)CCC)[C@@]1(O)[C@H]2OC(=O)[C@@]1(C)O` [thapsigargin], the “effect on CCK-induced increase in cytosolic Ca^2+” value [10] is given as “inhibits”.

For “PACAP(6–38): PAC1 antagonist (FTDSYSRYRKQMAVKKYLAAVLGKRYKQRVKNK; ends and bridges not checked; UniProt P18509 137-169, looked up, fragment)”, the “effect on PACAP-induced increase in cytosolic Ca^2+ (discussion)” value [1] is given as “blocked”, the “growth of NCI-H838 cells” value (NCI-H838 cells) is given as “inhibited” and the “inhibition of proliferation of NCI-H838 cells” value (NCI-H838 cells; 2012) is given as “inhibited”. For the same molecule, the “effect on PACAP-induced EGFR tyrosine phosphorylation” value [2] was “inhibited”.

For “bradykinin (RPPGFSPFR; Bradykinin; UniProt P01042 381-389, looked up)”, the “cytosolic Ca^2+” value [11] is listed as “increased”, the PYK-2 tyrosine phosphorylation (PYK-2 [12]) is listed as “increased” and the “cytosolic Ca^2+” value [13] is listed as “increased”. The PYK-2 tyrosine phosphorylation (PYK-2 [3]) was “increased”.

For “galanin (GWTLNSAGYLLGPHAVGNHRSFSDKNGLTS; Galanin; UniProt P22466 33-62, looked up)”, the “cytosolic Ca^2+” value [11] is given as “increased”, the PYK-2 tyrosine phosphorylation (PYK-2 [12]) is given as “increased” and the “cytosolic Ca^2+” value [13] is given as “increased”. For the same molecule, the PYK-2 tyrosine phosphorylation (PYK-2 [3]) was “increased”.

For “pituitary adenylate cyclase activating polypeptide [PACAP]”, the “growth of NCI-H838 cells” value (NCI-H838 cells) is given as “stimulated”, the PI metabolites ([14]; ref not given) is given as “increases” and the cAMP (cAMP; ref not given) is given as “increases”. The “Y^1068-EGFR phosphorylation” value ([2]; NCI-H838, after 1 min) was “increased”, the ERK tyrosine phosphorylation (ERK [5]) was “caused ERK tyrosine phosphorylation” and the “binding affinity to PAC1” value (PAC1; ref not given for PACAP) was “high affinity”. The “total PYK-2” value (PYK-2 [15]) was “did not change”.

In the case of platelet-derived growth factor, the PYK-2 activation (PYK-2 [16]) is listed as “activated”.

In the case of vasoactive intestinal peptide [VIP], the “binding affinity to VPAC2” value (VPAC2) is given as “high affinity”, the “growth of NCI-H838 cells” value (NCI-H838 cells) is given as “stimulated” and the PI turnover ([14]; ref Lee et al., 1990) is given as “does not cause PI turnover”. The cAMP (cAMP; ref Lee et al., 1990) was “increases”, the “binding affinity to PAC1” value (PAC1; ref Ishihara et al., 1992, Lutz et al., 1993) was “low affinity” and the “binding affinity to VPAC1” value (VPAC1) was “high affinity”.

In the case of “vasopressin (CYFQNCPRG-NH2; disulfide 1-6; ends not checked; UniProt P01185 20-28, looked up)”, the PYK-2 activation (PYK-2 [16]) is given as “activated”.

B1: Cholecystokinin (peptide, UniProt P06307 21-115, looked up)
Cholecystokinin: QPVPPADPAGSGLQRAEEAPRRQLRVSQRTDGESRAHLGALLARYIQQARKAPSGRMSIVKNLQNLDPSHRISDRDYMGWMDFGRRSAEEYEYPS
modifications: Cholecystokinin
In the case of B1, the “tyrosine phosphorylation of FAK” value (FAK [4]; ref Pace et al., 2003) is listed as “causes tyrosine phosphorylation” and the “cytosolic Ca^2+” value [10] is listed as “elevates”.
